# Assay results published in US7928114B2, “Crystalline erlotinib” (Synthon BV, priority 2006, dated 2011).
# Entries after “also recorded” stand apart in the source; their conditions may differ. Structures can show the parent of a compound that is named as a salt.
# Tests used:
# [1] = WO 01/34574, WO 2004/072049; cited from earlier work
# [2] = WO 2004/072049 (Form E vs Form B), WO 99/55683 (mesylate vs hydrochloride); cited from earlier work
# [3] = XRPD under non-ambient conditions (humidity / elevated temperature); format: physicochemical; conditions: 30° C./10-90% RH and 50° C./75% RH
# TGA hygroscopicity = format: physicochemical
# Excerpt: TGA confirmed that Form II can be considered non-hygroscopic.
# [4] = Relative thermodynamic stability of erlotinib free base crystal forms (prolonged stirring in 2-propanol; transitions on heating); format: physicochemical; conditions: recrystallization from 2-propanol with prolonged stirring; Forms I and III convert to Form II on heating
# Excerpt: Recrystallization from 2-propanol may initially give Form II with a small amount of another Form. However, prolonged stirring results in pure Form II.
# The hydrates of the invention can be converted into anhydrous forms and vice versa. For instance, any of the hydrates provides for the erlotinib free base Form II by heating.
# The transition of hydrate Form I into Form II proceeds via melting of Form I after which the melt recrystallizes to Form II. The transition of Form III into Form II occurs via the solid-solid transformation.
molecule,measurement,setting,value
"C#Cc1cccc(Nc2ncnc3cc(OCCOC)c(OCCOC)cc23)c1 [Form B, erlotinib hydrochloride]",stability relative to other erlotinib hydrochloride polymorphs,[1],thermodynamically more stable than Form A
"C#Cc1cccc(Nc2ncnc3cc(OCCOC)c(OCCOC)cc23)c1 [Form E, erlotinib hydrochloride]",solubility relative to comparator form/salt,[2],higher solubility
"C#Cc1cccc(Nc2ncnc3cc(OCCOC)c(OCCOC)cc23)c1 [Form II, [6,7-bis(2-methoxyethoxy)-quinazolin-4-yl]-(3-ethynylphenyl)amine]",polymorphic transitions under humid conditions at elevated temperatures,[3],does not undergo polymorphic transitions
same,hygroscopicity,TGA hygroscopicity,non-hygroscopic
same,thermodynamic stability relative to other free base forms,[4],thermodynamically more stable Form; also recorded: thermodynamically most stable form
erlotinib mesylate [mesylate salt of erlotinib],solubility relative to comparator form/salt,[2],enhanced solubility compared to the hydrochloride
